Consider 35 compounds from ChEMBL document CHEMBL1201862, “PubChem BioAssay data set” (2004).

The structures appear in SMILES notation. The source made the active and inactive calls.

A short description of test [1]: inhibitors of intracellular T. cruzi replication, confirmation, NIH3T3 host cells, beta-gal luminescence (AID 2044).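 Also: intracellular parasites grown in NIH/3T3 mouse fibroblasts as host cells; luminescent beta-galactosidase reporter signal from transgenic T. cruzi replicating inside host cells; inhibitors lower the luminescence signal.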 It counts as functional, cell-based.
Test [2] is described as follows: cytotoxicity toward NIH3T3 fibroblasts, dose response, counter-screen, cell-based, ATP luminescence, mouse fibroblasts (AID 2010).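 Also: cells exposed to compound for about 90 hours before reading.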 The format is functional. (In general: The purpose of a counterscreen is to sort out artefacts and off-target activity.)
In test [3] the target is T1, Rac GTPase-activating protein 1 (Homo sapiens, UniProt Q9H0H5).
T1 sequence (Q9H0H5 whole entry): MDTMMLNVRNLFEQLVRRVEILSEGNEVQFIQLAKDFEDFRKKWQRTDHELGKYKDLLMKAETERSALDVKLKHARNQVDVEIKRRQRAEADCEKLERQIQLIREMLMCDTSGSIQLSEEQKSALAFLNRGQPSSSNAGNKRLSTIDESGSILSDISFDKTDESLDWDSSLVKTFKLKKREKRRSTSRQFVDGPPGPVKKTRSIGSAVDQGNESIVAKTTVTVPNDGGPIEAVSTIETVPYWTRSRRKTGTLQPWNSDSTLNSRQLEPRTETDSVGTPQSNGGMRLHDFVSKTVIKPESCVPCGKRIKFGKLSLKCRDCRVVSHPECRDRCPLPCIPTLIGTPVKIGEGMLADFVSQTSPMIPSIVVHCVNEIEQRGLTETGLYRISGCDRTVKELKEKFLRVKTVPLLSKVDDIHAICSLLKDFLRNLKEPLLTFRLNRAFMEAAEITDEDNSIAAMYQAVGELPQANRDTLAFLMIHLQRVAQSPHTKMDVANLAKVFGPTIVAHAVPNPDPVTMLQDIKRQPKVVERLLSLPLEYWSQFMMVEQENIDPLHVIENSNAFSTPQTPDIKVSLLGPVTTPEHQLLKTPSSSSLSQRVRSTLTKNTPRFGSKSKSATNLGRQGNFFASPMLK
Description: MgcRacGAP GTPase-activating activity inhibitors, confirmation, biochemical, ADP Hunter fluorescence, primary and confirmatory (AID 624330). It counts as functional.

Test [4] concerns Streptococcus sp. 'group A'. In words: growth inhibition of control SK(-) GAS strain, dose response, counter-screen for streptokinase expression inhibitor project, luminescence, kanamycin, BacTiterGlo, confirmation (AID 1900). It counts as functional, organism-based.
The next test addresses T2, Streptokinase A (Streptococcus pyogenes serotype M1, UniProt P10520).
T2 sequence (P10520 whole entry): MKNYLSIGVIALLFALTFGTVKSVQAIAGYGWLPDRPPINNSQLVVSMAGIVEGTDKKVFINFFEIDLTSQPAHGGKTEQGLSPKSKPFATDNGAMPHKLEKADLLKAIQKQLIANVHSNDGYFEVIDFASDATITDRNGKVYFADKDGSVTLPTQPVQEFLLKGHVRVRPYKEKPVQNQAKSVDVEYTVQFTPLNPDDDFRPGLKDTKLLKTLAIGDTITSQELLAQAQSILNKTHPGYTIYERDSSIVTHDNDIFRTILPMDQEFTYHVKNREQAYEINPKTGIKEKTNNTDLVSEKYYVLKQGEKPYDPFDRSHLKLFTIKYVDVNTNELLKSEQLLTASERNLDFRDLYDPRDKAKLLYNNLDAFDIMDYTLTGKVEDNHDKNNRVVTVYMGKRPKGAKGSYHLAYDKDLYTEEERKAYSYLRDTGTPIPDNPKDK
Description: S. pyogenes streptokinase expression inhibitors, potency, dose response, plasminogen activation absorbance, OD405 (AID 1914).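 Also: secreted streptokinase activity via plasminogen activation per viability signal from cell pellet.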 It counts as functional, Streptococcus pyogenes M1 GAS.

In a further test the test system is Streptococcus. Description: Group A Streptococcus viability loss, dose response, counter-screen for streptokinase expression inhibitor project, luminescence, BacTiterGlo (AID 1915).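 Also: potency for reduction of bacterial viability or growth.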 It counts as functional, organism-based.
Test [5] concerns the target FAD-linked sulfhydryl oxidase ALR (Homo sapiens, UniProt P55789). In words: inhibitors of human ALR sulfhydryl oxidase, dose response, biochemical, H2O2 detection, luminescence, cherry-pick (AID 493248).
The target of test [6] is T3, Corticotropin-releasing factor receptor 2/Corticotropin-releasing factor-binding protein (Homo sapiens, UniProt P24387+Q13324).
T3 sequence (Q13324 whole entry): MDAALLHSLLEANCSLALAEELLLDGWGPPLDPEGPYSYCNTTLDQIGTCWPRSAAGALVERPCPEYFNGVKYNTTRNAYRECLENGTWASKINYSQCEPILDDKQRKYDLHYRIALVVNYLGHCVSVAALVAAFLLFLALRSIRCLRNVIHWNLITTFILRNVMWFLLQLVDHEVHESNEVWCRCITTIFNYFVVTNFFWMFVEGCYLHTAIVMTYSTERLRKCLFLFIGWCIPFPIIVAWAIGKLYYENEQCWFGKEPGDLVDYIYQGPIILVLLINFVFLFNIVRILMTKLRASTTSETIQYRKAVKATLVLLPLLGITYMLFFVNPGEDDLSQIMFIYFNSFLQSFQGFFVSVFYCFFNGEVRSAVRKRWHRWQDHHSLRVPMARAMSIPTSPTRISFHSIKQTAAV
T3 sequence (P24387 whole entry): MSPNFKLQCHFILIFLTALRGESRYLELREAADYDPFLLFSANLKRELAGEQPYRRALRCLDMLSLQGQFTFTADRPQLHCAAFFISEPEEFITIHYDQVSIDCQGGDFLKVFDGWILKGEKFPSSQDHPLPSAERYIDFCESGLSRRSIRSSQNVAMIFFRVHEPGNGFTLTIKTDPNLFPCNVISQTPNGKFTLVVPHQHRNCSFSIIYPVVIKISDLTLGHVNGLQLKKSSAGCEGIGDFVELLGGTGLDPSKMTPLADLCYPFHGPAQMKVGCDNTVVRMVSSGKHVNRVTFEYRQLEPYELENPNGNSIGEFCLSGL
Description: activators of CRF receptor 2 with binding protein – uHTS hits, confirmation (AID 602473). The note with it: read-out: EC50_Mean. It counts as functional.

The test system of the next test is H9c2. In words: cells. The format is functional, cell-based. The note with it: Rattus norvegicus, H9c2, Myocardium.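 Also: confirmatory concentration-response retest of ultra-high-throughput screening hits for modulation of myocardial damage; cell death induced by hydrogen peroxide oxidative stress; compound pretreatment for 60 min then peroxide exposure for 2 h; potency is for protecting the cells against peroxide damage rather than for killing them.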
In another test the target is T4, Cytochrome P450 1A2 (Homo sapiens, UniProt P05177).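 Also: PubChem cytochrome P450 panel assay, CYP1A2 panel member.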
T4 sequence (P05177 whole entry): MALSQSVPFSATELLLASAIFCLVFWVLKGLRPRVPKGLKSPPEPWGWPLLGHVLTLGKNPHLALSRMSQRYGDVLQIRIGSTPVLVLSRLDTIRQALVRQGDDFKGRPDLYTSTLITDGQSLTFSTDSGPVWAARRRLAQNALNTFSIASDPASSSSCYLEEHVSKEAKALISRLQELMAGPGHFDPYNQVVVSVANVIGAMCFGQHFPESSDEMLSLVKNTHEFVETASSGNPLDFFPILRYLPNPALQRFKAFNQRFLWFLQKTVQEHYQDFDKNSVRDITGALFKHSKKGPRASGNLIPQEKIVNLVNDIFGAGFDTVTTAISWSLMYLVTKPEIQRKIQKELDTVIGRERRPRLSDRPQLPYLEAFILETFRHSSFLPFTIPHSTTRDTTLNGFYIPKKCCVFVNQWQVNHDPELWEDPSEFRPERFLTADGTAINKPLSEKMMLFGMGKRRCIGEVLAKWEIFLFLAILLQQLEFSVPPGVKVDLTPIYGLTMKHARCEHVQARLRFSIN

The target of another test is Cytochrome P450 2D6 (Homo sapiens, UniProt P10635).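 Also: CYP2D6 member of a cytochrome P450 panel assay.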
Chain of Cytochrome P450 2D6 (P10635 whole entry): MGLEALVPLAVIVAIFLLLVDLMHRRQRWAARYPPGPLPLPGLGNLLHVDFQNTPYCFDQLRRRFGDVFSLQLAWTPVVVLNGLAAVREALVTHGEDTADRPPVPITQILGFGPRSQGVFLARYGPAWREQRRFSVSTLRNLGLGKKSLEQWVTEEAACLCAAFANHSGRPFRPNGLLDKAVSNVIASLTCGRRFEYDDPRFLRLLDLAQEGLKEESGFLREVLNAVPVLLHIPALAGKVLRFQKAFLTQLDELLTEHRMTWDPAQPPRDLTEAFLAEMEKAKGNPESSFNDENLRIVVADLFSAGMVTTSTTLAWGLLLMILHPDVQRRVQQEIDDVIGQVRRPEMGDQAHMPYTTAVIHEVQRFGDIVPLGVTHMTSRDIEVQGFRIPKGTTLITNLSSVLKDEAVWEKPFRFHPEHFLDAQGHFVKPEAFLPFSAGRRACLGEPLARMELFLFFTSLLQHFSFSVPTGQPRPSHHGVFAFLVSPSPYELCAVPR
The test system of the next test is INS1. Description: beta cell apoptosis inhibitors, cytokine rescue, dose response, luminescence, retest (AID 449756).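 Also: cell death triggered by IL-1 beta plus TNF-alpha plus IFN-gamma mixture; protective hits raise ATP signal compared with cytokine alone wells.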 It counts as functional, cell-based. The note with it: Rattus norvegicus.
The nature of test [7]: Luminescence Cell-Based Dose Retest to Confirm Inhibitors of Cancer Stem Cells. [Related pubchem assays (depositor defined):AID2717, AID2721]. It counts as functional. The note with it: Homo sapiens.

Chain of FAD-linked sulfhydryl oxidase ALR (P55789 whole entry): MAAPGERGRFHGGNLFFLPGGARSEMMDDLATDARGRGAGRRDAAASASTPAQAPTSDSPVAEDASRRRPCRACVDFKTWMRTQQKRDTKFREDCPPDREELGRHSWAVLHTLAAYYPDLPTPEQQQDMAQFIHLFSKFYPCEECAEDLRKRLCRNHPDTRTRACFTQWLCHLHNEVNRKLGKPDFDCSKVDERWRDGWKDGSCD

With `CNC(=S)N/N=C/c1ccc(N2CCOCC2)s1`, the EC50 in test [1] and in [2] was > 60 µM (not active) throughout. The IC50 in test [3] was 28.3 µM (active).
Take `Cc1ccc2ccc(C(Nc3ccccn3)c3ccccc3)c(O)c2n1` (configuration not stated): the EC50 in test [4] is 1.52 µM (active); at Streptokinase A, > 150 µM (not active); in the test with Streptococcus it was 63.5 µM (active).
As to `Nc1ccc(Cl)cc1/C(=N/O)c1ccccc1`, the AC50 in [5] is 22.8 µM (active).
`CN(Cc1nc(-c2ccccn2)no1)S(=O)(=O)c1ccc(Cl)cc1`: the EC50 in [6] is > 53 µM (inactive).
As to `O=C(N/N=C/c1cccc(O)c1)c1cc(-c2ccc3c(c2)OCO3)[nH]n1`, the IC50 in the test on H9c2 is > 79 µM (inactive).
In the case of `O=C(CCc1nc(O)c2ccccc2n1)NCCN1C(=O)S/C(=C\c2ccc(OC(F)F)cc2)C1=O`, the IC50 with H9c2 was > 79 µM (inactive).
`Nc1cc(O)nc(SCc2csc(-c3ccccc3)n2)n1`: the half-maximal activity concentration (AC50) in test [5] was 5.71 µM (active).
Take `COCCCN1C(=O)/C(=C/c2ccc(CNS(=O)(=O)c3ccccc3)o2)C(C(=O)OC)=C1C`: the EC50 was 28.9 µM (active) in test [4], > 150 µM (not active) on Streptokinase A and > 150 µM (not active) in the test with Streptococcus.
On to `O=C(Nc1nc2ccccc2n1Cc1ccccc1)c1ccc(COc2ccccc2[N+](=O)[O-])o1`, for which the EC50 in test [1] was 1.25 µM (active); in [2], > 60 µM (inconclusive). In addition, the figures for the AC50 on Cytochrome P450 1A2 and on Cytochrome P450 2D6 were 1.78 µM (inconclusive) and 17.8 µM (inconclusive), respectively.
For the compound `O=C(Nc1ccc(O)cc1)c1cc(S(=O)(=O)N2CCCC2)ccc1Cl`, in test [5], the AC50 is 2.49 µM (active).
Consider `Cc1csc2nc(COC(=O)c3ccc(Cl)c([N+](=O)[O-])c3)cc(=O)n12`, for which the IC50 in the test on H9c2 was > 79 µM (inactive).
Turning to `CCN(CC)c1ccc(/C=N/NC(=O)CCC(=O)NCc2ccccc2)c(O)c1`, the AC50 with INS1 is 1.7 µM (active); in [7] it was 5.66 µM (active). The EC50 in test [4] was 3.22 µM (active); in the test on Streptococcus it was 4.53 µM (active).
Turning to `CCC(CC)C(=O)c1c[nH]c(C(=O)NCc2ccccn2)c1`, in the test on INS1, the AC50 was > 260 µM (inactive).
For `O=C(COC(=O)CCc1nc(O)c2ccccc2n1)Nc1ccc2c(c1)OCO2`, the IC50 in the test with H9c2 is > 79 µM (inactive).
For `Oc1ccccc1CNc1cnc2ccccc2c1`, the AC50 in test [5] is 37.9 µM (active).
For the compound `CN1C(=O)C(=C/C=C/Nc2ccccc2)C(=O)N(C)C1=O`, the EC50 in test [6] is > 53 µM (inactive).
`COc1cccc(-c2cc3nc(C)c(C)c(N4CCN(C(=O)c5ccoc5)CC4)n3n2)c1`: the IC50 with H9c2 was > 79 µM (inactive).
In the case of `CC(c1nnc(S)n1-c1ccc(F)cc1)N1CCCCC1` (configuration not stated), the AC50 in test [5] is 5.03 µM (active).
As to `CN1/C(=C\C(=O)c2ccco2)C(C)(C)c2ccccc21`, in the test with INS1, the AC50 was 6.55 µM (active).
Turning to `COc1ccc(-n2c(/C=C/c3ccc(O)cc3)nc3ccccc3c2=O)cc1`, in the test with H9c2, the IC50 is > 79 µM (inactive).
In the case of `Cc1ccccc1OCC(=O)NNC(=O)Cn1[nH]c(=O)c2ccccc2c1=O`, in the test with H9c2, the IC50 is > 79 µM (inactive).
Regarding `CC(=N\Nc1ccccc1)/C(=N/O)C(=O)Nc1ccccc1`, the AC50 in test [5] is 2.49 µM (active).
With `COc1ccc(OC)c(CCNC(=O)C(=O)Nc2ccc3nc4n(c(=O)c3c2)CCCCC4)c1`, the EC50 in test [4] is 4.97 µM (active); on Streptokinase A, 16.6 µM (active); in the test with Streptococcus, 18.3 µM (active).
Consider `Cc1sc2nc(SCC(=O)NCc3ccco3)nc(O)c2c1C`, for which the IC50 in the test on H9c2 is > 79 µM (inactive).
`Cc1cc(C)c(S(=O)(=O)Nc2ccc(O)cc2)c(C)c1`: the IC50 in [3] was 69.7 µM (active). Moreover, the concentration at half-maximal activity (AC50) in test [5] is 0.694 µM (active).
For the compound `O=C(NNC(=S)NC(=O)c1ccccc1)c1ccc(O)cc1`, the figures for the EC50 (in [4]; at Streptokinase A; in the test with Streptococcus) were 4.64 µM (active), > 150 µM (not active) and 52.4 µM (inconclusive), respectively.
As to `CCn1cc(C(=O)NC(=S)Nc2ccccc2Br)cn1`, the EC50 (in test [4]; at Streptokinase A; with Streptococcus) was > 150 µM (not active) each time.
With `Nc1n[nH]c(Nc2ccccc2)n1`, in test [5], the AC50 is 1.79 µM (active).
For `CCCc1cc(N2CCN(C(=O)c3ccco3)CC2)n2c(nc3ccccc32)c1C#N`, the IC50 with H9c2 is > 79 µM (inactive).
In the case of `Cn1c(/C=N/NC(=O)c2ccccc2)nc2ccccc21`, the IC50 in the test with H9c2 is 13.5 µM (active).
Consider `COc1ccccc1N1CCN(CCc2nnc(S)n2-c2ccccc2)CC1`, for which the AC50 in test [5] was 2.88 µM (active).
Same read-out and setting: next, `Cc1ccc(/C=C2\C(=O)NC(=O)N(Cc3ccccc3Cl)C2=O)o1`: 0.494 µM (active).
Take `CCCN1CCc2c(sc(NC(=O)c3ccc(S(=O)(=O)N4CCN(C(=O)OCC)CC4)cc3)c2C(N)=O)C1`: the EC50 in test [4] is 51.8 µM (active); at Streptokinase A, > 150 µM (not active); in [6], 15.2 µM (active); in the test with Streptococcus it was > 150 µM (not active).
As to `O=C(CCc1nc(O)c2ccccc2n1)N1CCN(S(=O)(=O)c2cccc(F)c2)CC1`, in the test on H9c2, the IC50 was > 79 µM (inactive).
With `C[C@H](CO)N1C[C@H](C)[C@@H](CN(C)C(=O)Nc2ccc3c(c2)OCO3)Oc2c(NC(=O)Nc3ccc(C(F)(F)F)cc3)cccc2C1=O`, in the test on H9c2, the IC50 is 21.3 µM (active).

As usually defined, the IC50 is the concentration that gives 50% inhibition. As a reminder, the AC50 is the midpoint of the concentration-response curve, whichever way the signal moves.
